Data taken from patent US8293770B2, “Pyrrolidine derivatives as NK-3 receptor antagonists” (Hoffmann-La Roche Inc., priority 2008, dated 2012).

These compounds were tested against T1, recombinant human NK3 receptor (Homo sapiens, UniProt P29371) (assay: [3H]SR142801 competition binding assay). Details: hNK3 receptor binding, [3H]SR142801, membranes from HEK293 cells transiently expressing recombinant human NK3 receptor.
T1 construct: expressed in transfected cells; host or cells: HEK293 cells (transient expression), membranes
T1 sequence (P29371 1-465): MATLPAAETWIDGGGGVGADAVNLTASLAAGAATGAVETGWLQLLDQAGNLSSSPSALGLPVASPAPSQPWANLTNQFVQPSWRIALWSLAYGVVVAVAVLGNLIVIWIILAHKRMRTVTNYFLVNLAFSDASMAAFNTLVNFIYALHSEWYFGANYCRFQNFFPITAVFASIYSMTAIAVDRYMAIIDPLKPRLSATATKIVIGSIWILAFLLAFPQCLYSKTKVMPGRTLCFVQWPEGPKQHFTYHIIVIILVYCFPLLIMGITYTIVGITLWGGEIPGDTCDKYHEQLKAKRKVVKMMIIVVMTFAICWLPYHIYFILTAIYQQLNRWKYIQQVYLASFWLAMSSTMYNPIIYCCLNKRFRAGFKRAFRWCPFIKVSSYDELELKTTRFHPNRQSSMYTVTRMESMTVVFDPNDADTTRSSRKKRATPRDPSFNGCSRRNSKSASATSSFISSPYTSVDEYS
Experimental: [^3H]SR142801 competition binding assay
hNK3 receptor binding experiment were performed using [^3H]SR142801 (Catalog No. TRK1035, specific activity: 74.0 Ci/mmol, Amersham, GE Healthcare UK limited, Buckinghamshire, UK) and membrane isolated from HEK293 cells transiently expressing recombinant human NK3 receptor. After thawing, the membrane homogenates were centrifuged at 48,000×g for 10 min at 4° C., the pellets were resuspended in the 50 mM Tris-HCl, 4 mM MnCl2, 1 μM phosphoramidon, 0.1% BSA binding buffer at pH 7.4 to a final assay concentration of 5 μg protein/well. […] At the end of the incubation, membranes were filtered onto unitfilter (96-well white microplate with bonded GF/C filter preincubated 1 h in 0.3% PEI+0.3% BSA, Packard BioScience, Meriden, Conn.) with a Filtermate 196 harvester (Packard BioScience) and washed 4 times with ice-cold 50 mM Tris-HCl, pH 7.4 buffer. Nonspecific binding was measured in the presence of 10 μM SB222200 for both radioligands. The radioactivity on the filter was counted (5 min) on a Packard Top-count microplate scintillation counter with quenching correction after addition of 45 μl of microscint 40 (Canberra Packard S. A., Zürich, Switzerland) and shaking for 1 h. Inhibition curves were fitted according to the Hill equation: y=100/(1+(x/IC50)^nH), where nH=slope factor using Excel-fit 4 software (Microsoft). IC50 values were derived from the inhibition curve and the affinity constant (Ki) values were calculated using the Cheng-Prussoff equation Ki=IC50/(1+[L]/KD) where [L] is the concentration of radioligand and KD is its dissociation constant at the receptor, derived from the saturation isotherm. All experiments were performed in duplicate and the mean±standard error (SEM) of the individual Ki values was calculated.
For `CN(Cc1ccc(C(F)(F)F)c(F)c1)[C@H]1CN(C(=O)c2ccc(C#N)cc2)C[C@@H]1c1ccc(Cl)c(Cl)c1` (racemic) [Example 6, 4-{(3SR,4RS)-3-(3,4-Dichloro-phenyl)-4-[(3-fluoro-4-trifluoromethyl-benzyl)-methyl-amino]-pyrrolidine-1-carbonyl}-benzonitrile], the Ki was 0.0209 µM.
`CN(Cc1ccc(C(F)(F)F)c(F)c1)[C@H]1CN(C(=O)c2ccc(-c3cccnc3)cc2)C[C@@H]1c1ccc(Cl)c(Cl)c1` (racemic) [Example 44, {(3SR,4RS)-3-(3,4-Dichloro-phenyl)-4-[(3-fluoro-4-trifluoromethyl-benzyl)-methyl-amino]-pyrrolidin-1-yl}-(4-pyridin-3-yl-phenyl)-methanone] gave a Ki of 0.0056 µM.
`CN(Cc1ccc(C(F)(F)F)c(F)c1)[C@H]1CN(C(=O)c2ccc(F)nc2)C[C@@H]1c1ccc(Cl)c(Cl)c1` (racemic) [Example 28, {(3SR,4RS)-3-(3,4-Dichloro-phenyl)-4-[(3-fluoro-4-trifluoromethyl-benzyl)-methyl-amino]-pyrrolidin-1-yl}-(6-fluoro-pyridin-3-yl)-methanone] gave a Ki of 0.0356 µM.
In the case of `CN(Cc1ccc(C(F)(F)F)c(F)c1)[C@H]1CN(C(=O)c2ccc(C#N)nc2)C[C@@H]1c1ccc(Cl)c(Cl)c1` (racemic) [Example 26, 5-{(3SR,4RS)-3-(3,4-Dichloro-phenyl)-4-[(3-fluoro-4-trifluoromethyl-benzyl)-methyl-amino]-pyrrolidine-1-carbonyl}-pyridine-2-carbonitrile], the Ki is reported as 0.0148 µM.
`CN(Cc1ccc(C(F)(F)F)c(F)c1)[C@H]1CN(C(=O)c2cc(S(C)(=O)=O)ccc2F)C[C@@H]1c1ccc(Cl)c(Cl)c1` (racemic) [Example 20, {(3SR,4RS)-3-(3,4-Dichloro-phenyl)-4-[(3-fluoro-4-trifluoromethyl-benzyl)-methyl-amino]-pyrrolidin-1-yl}-(2-fluoro-5-methanesulfonyl-phenyl)-methanone] showed a Ki of 0.0417 µM.
Compound `CN(Cc1ccc(C(F)(F)F)c(F)c1)[C@H]1CN(C(=O)c2ccc(S(C)(=O)=O)cc2)C[C@@H]1c1ccc(Cl)c(Cl)c1` (racemic) [Example 22, {(3SR,4RS)-3-(3,4-Dichloro-phenyl)-4-[(3-fluoro-4-trifluoromethyl-benzyl)-methyl-amino]-pyrrolidin-1-yl}-(4-methanesulfonyl-phenyl)-methanone] has a Ki of 0.0302 µM.
`CN(Cc1ccc(C(F)(F)F)c(F)c1)[C@H]1CN(C(=O)c2ccc(C#N)cc2)C[C@@H]1c1ccc(Cl)c(F)c1` (racemic) [Example 66, 4-{(3SR,4RS)-3-(4-Chloro-3-fluoro-phenyl)-4-[(3-fluoro-4-trifluoromethyl-benzyl)-methyl-amino]-pyrrolidine-1-carbonyl}-benzonitrile] gave a Ki of 0.0126 µM.
Work on `CN(Cc1ccc(C(F)(F)F)c(F)c1)[C@H]1CN(C(=O)c2ccc(-n3ccnc3)cc2)C[C@@H]1c1ccc(Cl)c(Cl)c1` (racemic) [Example 41, {(3SR,4RS)-3-(3,4-Dichloro-phenyl)-4-[(3-fluoro-4-trifluoromethyl-benzyl)-methyl-amino]-pyrrolidin-1-yl}-(4-imidazol-1-yl-phenyl)-methanone] yielded a Ki of 0.0107 µM.
For `CC(=O)c1ccc(C(=O)N2C[C@H](c3ccc(Cl)c(Cl)c3)[C@@H](N(C)Cc3ccc(C(F)(F)F)c(F)c3)C2)cc1` (racemic) [Example 24, 1-(4-{(3SR,4RS)-3-(3,4-Dichloro-phenyl)-4-[(3-fluoro-4-trifluoromethyl-benzyl)-methyl-amino]-pyrrolidine-1-carbonyl}-phenyl)-ethanone], the Ki was 0.0068 µM.
Work on `COc1ncc(C(=O)N2C[C@H](c3ccc(Cl)c(Cl)c3)[C@@H](N(C)Cc3ccc(C(F)(F)F)c(F)c3)C2)cn1` (racemic) [Example 57, {(3SR,4RS)-3-(3,4-Dichloro-phenyl)-4-[(3-fluoro-4-trifluoromethyl-benzyl)-methyl-amino]-pyrrolidin-1-yl}-(2-methoxy-pyrimidin-5-yl)-methanone] yielded a Ki of 0.0223 µM.
Compound `CN(Cc1ccc(C(F)(F)F)c(F)c1)[C@H]1CN(C(=O)c2ccc(N3CCN(C(=O)OC(C)(C)C)CC3)nc2)C[C@@H]1c1ccc(Cl)c(Cl)c1` (racemic) [Example 63, 4-(5-{(3SR,4RS)-3-(3,4-Dichloro-phenyl)-4-[(3-fluoro-4-trifluoromethyl-benzyl)-methyl-amino]-pyrrolidine-1-carbonyl}-pyridin-2-yl)-piperazine-1-carboxylic acid tert-butyl ester] has a Ki of 0.0247 µM.
In the case of `CN(Cc1ccc(C(F)(F)F)c(F)c1)[C@H]1CN(C(=O)c2ccc(-c3ccccn3)cc2)C[C@@H]1c1ccc(Cl)c(Cl)c1` (racemic) [Example 43, {(3SR,4RS)-3-(3,4-Dichloro-phenyl)-4-[(3-fluoro-4-trifluoromethyl-benzyl)-methyl-amino]-pyrrolidin-1-yl}-(4-pyridin-2-yl-phenyl)-methanone], the Ki is reported as 0.0051 µM.
`COc1ccc(C(=O)N2C[C@H](c3ccc(Cl)c(Cl)c3)[C@@H](N(C)Cc3ccc(C(F)(F)F)c(F)c3)C2)cn1` (racemic) [Example 29, {(3SR,4RS)-3-(3,4-Dichloro-phenyl)-4-[(3-fluoro-4-trifluoromethyl-benzyl)-methyl-amino]-pyrrolidin-1-yl}-(6-methoxy-pyridin-3-yl)-methanone] gave a Ki of 0.0084 µM.
Compound `Cc1ccc(C(=O)N2C[C@H](c3ccc(Cl)c(Cl)c3)[C@@H](N(C)Cc3ccc(C(F)(F)F)c(F)c3)C2)cn1` (racemic) [Example 25, {(3SR,4RS)-3-(3,4-Dichloro-phenyl)-4-[(3-fluoro-4-trifluoromethyl-benzyl)-methyl-amino]-pyrrolidin-1-yl}-(6-methyl-pyridin-3-yl)-methanone] has a Ki of 0.0152 µM.
For `CN(Cc1ccc(C(F)(F)F)c(F)c1)[C@H]1CN(C(=O)c2ccc(-c3ccncc3)cc2)C[C@@H]1c1ccc(Cl)c(Cl)c1` (racemic) [Example 45, {(3SR,4RS)-3-(3,4-Dichloro-phenyl)-4-[(3-fluoro-4-trifluoromethyl-benzyl)-methyl-amino]-pyrrolidin-1-yl}-(4-pyridin-4-yl-phenyl)-methanone], the Ki was 0.0025 µM.
With `CN(Cc1ccc(C(F)(F)F)c(F)c1)[C@H]1CN(C(=O)c2ccc3cnccc3n2)C[C@@H]1c1ccc(Cl)c(Cl)c1` (racemic) [Example 51, {(3SR,4RS)-3-(3,4-Dichloro-phenyl)-4-[(3-fluoro-4-trifluoromethyl-benzyl)-methyl-amino]-pyrrolidin-1-yl}-[1,6]naphthyridin-2-yl-methanone] the Ki was 0.0146 µM.
In the case of `CN(Cc1ccc(C(F)(F)F)c(F)c1)[C@H]1CN(C(=O)c2ccc(-c3nnco3)cc2)C[C@@H]1c1ccc(Cl)c(Cl)c1` (racemic) [Example 47, {(3SR,4RS)-3-(3,4-Dichloro-phenyl)-4-[(3-fluoro-4-trifluoromethyl-benzyl)-methyl-amino]-pyrrolidin-1-yl}-(4-[1,3,4]oxadiazol-2-yl-phenyl)-methanone], the Ki is reported as 0.0023 µM.
With `CN(Cc1ccc(C(F)(F)F)c(F)c1)[C@H]1CN(C(=O)c2cccc(C#N)c2)C[C@@H]1c1ccc(Cl)c(Cl)c1` (racemic) [Example 9, 3-{(3SR,4RS)-3-(3,4-Dichloro-phenyl)-4-[(3-fluoro-4-trifluoromethyl-benzyl)-methyl-amino]-pyrrolidine-1-carbonyl}-benzonitrile] the Ki was 0.0474 µM.
Compound `CN(Cc1ccc(C#N)c(F)c1)[C@H]1CN(C(=O)c2ccc(C#N)cc2)C[C@@H]1c1ccc(Cl)c(Cl)c1` (racemic) [Example 18, 4-({[(3RS,4SR)-1-(4-Cyano-benzoyl)-4-(3,4-dichloro-phenyl)-pyrrolidin-3-yl]-methyl-amino}-methyl)-2-fluoro-benzonitrile] has a Ki of 0.042 µM.
`CN(Cc1ccc(C(F)(F)F)c(F)c1)[C@H]1CN(C(=O)c2ccc3nn[nH]c3c2)C[C@@H]1c1ccc(Cl)c(Cl)c1` (racemic) [Example 59, (3H-Benzotriazol-5-yl)-{(3SR,4RS)-3-(3,4-dichloro-phenyl)-4-[(3-fluoro-4-trifluoromethyl-benzyl)-methyl-amino]-pyrrolidin-1-yl}-methanone] gave a Ki of 0.0318 µM.
`CN(Cc1ccc(C(F)(F)F)c(F)c1)[C@H]1CN(C(=O)c2ccc(N3CCOCC3)nc2)C[C@@H]1c1ccc(Cl)c(Cl)c1` (racemic) [Example 27, {(3SR,4RS)-3-(3,4-Dichloro-phenyl)-4-[(3-fluoro-4-trifluoromethyl-benzyl)-methyl-amino]-pyrrolidin-1-yl}-(6-morpholin-4-yl-pyridin-3-yl)-methanone] gave a Ki of 0.0057 µM.
